For the test, the system named is Plasmopara viticola. Nature of the test: activity against peronospora of grapevines caused by Plasmopara viticola (protective spray treatment of potted vines). The class given is in vivo, Plasmopara viticola on grapevines. As to conditions: individual active compound, Abbot's formula, untreated control 92% infection. As to the method: The active compounds, separately or jointly, were prepared as a stock solution comprising 0.25% by weight of active compound in acetone or DMSO. 1% by weight of the emulsifier Uniperol® EL (wetting agent having emulsifying and dispersant action based on ethoxylated alkylphenols) was added to this solution, and the mixture was diluted with water to the desired concentration.
Use example—activity against peronospora of gravevines caused by Plasmopara viticola
Leaves of potted vines were sprayed to runoff point with an aqueous suspension having the concentration of active compound stated below. The next day, the undersides of the leaves were inoculated with an aqueous sproangal suspension of Plasmopara viticola. The grapevines were then initially placed in a water-vapor-saturated chamber at 24° C. for 48 hours and then in a greenhouse at 20-30° C. for 5 days. After this period of time, the plants were again placed in a humid chamber for 16 hours to promote sporangiophore eruption. The extent of the development of the disease on the undersides of the leaves was then determined visually.
The visually determined percentages of infected leaf areas were converted into efficacies in % of the untreated control:
The efficacy (E) is calculated as follows using Abbot's formula: E=(1−α/β)·100 • α corresponds to the fungicidal infection of the treated plants in % and • β corresponds to the fungicidal infection of the untreated (control) plants in %
An efficacy of 0 means that the infection level of the treated plants corresponds to that of the untreated control plants; an efficacy of 100 means that the treated plants were not infected.
The expected efficacies of mixtures of active compounds were determined using Colby's formula (Colby, S. R. “Calculating synergistic and antagonistic responses of herbicide combinations”, Weeds, 15, 20-22, 1967) and compared with the observed efficacies.
Colby's formula: E=x+y−x·y/100 • E expected efficacy, expressed in % of the untreated control, when using the mixture of the active compounds A and B at the concentrations a and b • x efficacy, expressed in % of the untreated control, when using the active compound A at the concentration a
y efficacy, expressed in % of the untreated control, when using the active compound B at the concentration b

For the compound “2,6-dinitro-4-octylphenyl crotonate und 2,4-dinitro-6-octylphenyl crotonate [II]”, the “Efficacy in % of the untreated control” value (4 ppm in the spray liquor) is given as 2%, the “Efficacy in % of the untreated control” value (16 ppm in the spray liquor) is given as 2% and the “Efficacy in % of the untreated control” value (63 ppm in the spray liquor) came out at 2%.

Regarding `CC1CCN(c2c(-c3c(F)cc(F)cc3F)c(Cl)nc3ncnn23)CC1` [I, 5-chloro-7-(4-methylpiperidin-1-yl)-6-(2,4,6-trifluorophenyl)-[1,2,4]triazolo[1,5-a]pyrimidine], the “Efficacy in % of the untreated control” value (16 ppm in the spray liquor) was 56%.

The values are drawn from patent publication US20070117814A1, “Fungicidal mixtures” (Basf Aktiengesellschaft, priority 2003, published 2007).
